Patent publication US20150141336A1, “Pancreatic Peptide Compounds and Use” (Novo Nordisk A/S, priority 2012, published 2015)
Numbered stars: 1 amine (or outer) side, 2 acyl side, 3 side chain; on linkers, the order of the positions; unused ones are H or OH. Side chains are listed from the residue outwards. Peptide text beside a SMILES is read from it. * marks the point of attachment. C18 diacid = O=C(O)CCCCCCCCCCCCCCCCC(=O)*; γGlu = O=C(O)[C@H](CCC(=O)[*:2])N[*:1]; AEEA = NCCOCCOCC(=O)O

Experiment: Assay (II) PK i.v. minipig, in vivo half-life
Set-up: species or system Göttingen mini-pigs
Conditions: male, Göttingen, iv, Table 2, PP(2-36) based, crude sample, i.v. minipig, read-out: Half-life minipig, Assay (II) (converted)
Procedure: An assay useful for measuring the pharmacokinetic (PK) profile of the PP peptide is the following mini-pig PK assay.
Five male Göttingen mini-pigs weighing approximately 18 to 22 kg from Ellegaard Göttingen Minipigs NS, Denmark are included in the study. The mini-pigs have two central venous catheters inserted which are used for intra venous (i.v.) dosing and blood sampling. The test compound is dissolved in 50 mM K2HPO4, 0.05% tween 80, pH=8.0 to a concentration of 180 nmol/ml. For comparison a control compound, such as human PP(1-36), may be administered. The pigs are dosed with 6 nmol test compound/kg body weight. Blood samples are taken at the following time points: pre-dose, 30 minutes, 1, 2, 4, 8, 24, 48, 72, 96, 120, 168 and 240 hours post dosing. The blood samples were collected into test tubes containing EDTA buffer for stabilization and kept on ice for max. 20 minutes before centrifugation. The centrifugation procedure to separate plasma may be: 4° C., approx. 2500 g for 10 minutes. Plasma is collected and immediately transferred to Micronic tubes stored at −20° C. until assayed.
The test compounds were assayed in plasma by Turbulent Flow Chromatography coupled to Liquid Chromatography with subsequent Tandem Mass Spectrometric Detection (TFC/LC/MS/MS). Positive mode ionization and Multiple Reaction Monitoring (MRM) of a multiple protonated species fragmented to a singly charged ion was employed for selectivity. The selectivity of the method allows multiple compounds to be quantified in one sample.
The concentrations of the test compound in samples of unknown concentration were calculated using the peak area as a function of amount. Calibration graphs based on plasma samples spiked with the analyte were constructed by regression analysis. Typical dynamic range for standard assay was 1-2000 nmol/I. The method performance was assured by co-assaying quality control (QC) samples in duplicate at three concentration levels.
Stock and working solutions of analytes were prepared in plasma and incubated by 37° C. for 1 hour.
Sample Preparation: 40.0 μl EDTA-plasma was added 160 μl 50% methanol, 1% formic acid, then vortexed and centrifuged at 16457 g at 4° C. for 20 minutes. The supernatant was transferred to a 96 well plate, plates incubated with 0.4% BSA, 37° C. for ½ hour. Injection volume was 25 μl.
The analysis was carried out on a Sciex API 3000 mass spectrometer (MDS/Sciex, Concord, ON, Canada) using a TurbolonSpray interface. The TFC/LC system consisted of two Flux Rheos 2000 quaternary pumps, a Cohesive VIM module (Cohesive Technologies, Franklin, Mass., USA) and a CTC LC/PAL auto sampler (CTC Analytics, Zingen, Switzerland). The centrifuge employed was a HettichMikro 22R (A. Hettich, Tuttlingen, Germany). For sample clean up a TurboFlow C8 column (0.5×50 mm) (Cohesive Technologies/Thermofisher) was used and the LC separation was done on a Proteo 4 μm column (2.0×50 mm) (Phenomenex, Torrance, Calif., USA). Eluents were isocratic and gradient combinations of methanol, acetonitril, Milli-Q water and formic acid.
Non-compartmental analysis (NCA): Plasma concentration-time profiles are analyzed by non-compartmental pharmacokinetics analysis (NCA) using WinNonlin Professional 5.0 (Pharsight Inc., Mountain View, Calif., USA). NCA is performed using the individual plasma concentration-time profiles from each animal.

Row | SMILES | half-life [h]
1 | CC[C@H](C)[C@H](NC(=O)[C@H](Cc1ccc(O)cc1)NC(=O)[C@H](CCCNC(=N)N)NC(=O)[C@H](CCCNC(=N)N)NC(=O)[C@H](CC(C)C)NC(=O)[C@H](CC(=O)O)NC(=O)[C@H](C)NC(=O)[C@H](C)NC(=O)[C@H](Cc1ccc(O)cc1)NC(=O)[C@H](CCC(N)=O)NC(=O)[C@H](C)NC(=O)[C@H](CCSC)NC(=O)[C@H](CCC(N)=O)NC(=O)[C@H](CCC(=O)O)NC(=O)[C@@H]1CCCN1C(=O)[C@@H](NC(=O)[C@H](C)NC(=O)[C@H](CCCCNC(=O)COCCOCCNC(=O)COCCOCCNC(=O)CC[C@H](NC(=O)CCCCCCCCCCCCCCCCC(=O)O)C(=O)O)NC(=O)[C@H](CC(=O)O)NC(=O)CNC(=O)[C@@H]1CCCN1C(=O)[C@H](Cc1ccc(O)cc1)NC(=O)[C@@H](NC(=O)[C@@H]1CCCN1C(=O)[C@H](CCC(=O)O)NC(=O)[C@H](CC(C)C)NC(=O)[C@@H]1CCCN1)C(C)C)[C@@H](C)O)C(=O)N[C@@H](CC(N)=O)C(=O)N[C@@H](CCSC)C(=O)N[C@@H](CC(C)C)C(=O)N[C@H](C(=O)N[C@@H](CCCNC(=N)N)C(=O)N1CCC[C@H]1C(=O)N[C@@H](CCCNC(=N)N)C(=O)N[C@@H](Cc1ccc(O)cc1)C(N)=O)[C@@H](C)O [Compound W] | 29

Same assay, conditions: male, Göttingen, minipig, iv, Half-life minipig, Assay (II)

Row | SMILES | half-life [h]
2 | CC[C@H](C)[C@H](NC(=O)[C@H](Cc1ccc(O)cc1)NC(=O)[C@H](CCCNC(=N)N)NC(=O)[C@H](CCCNC(=N)N)NC(=O)[C@H](CC(C)C)NC(=O)[C@H](CC(=O)O)NC(=O)[C@H](C)NC(=O)[C@H](C)NC(=O)[C@H](Cc1ccc(O)cc1)NC(=O)[C@H](CCC(N)=O)NC(=O)[C@H](C)NC(=O)[C@H](CCSC)NC(=O)[C@H](CCC(N)=O)NC(=O)[C@H](CCC(=O)O)NC(=O)[C@@H]1CCCN1C(=O)[C@@H](NC(=O)[C@H](C)NC(=O)[C@H](CC(N)=O)NC(=O)[C@H](CC(=O)O)NC(=O)CNC(=O)[C@@H]1CCCN1C(=O)[C@H](Cc1ccc(O)cc1)NC(=O)[C@@H](NC(=O)[C@@H]1CCCN1C(=O)[C@H](CCC(=O)O)NC(=O)[C@@H](N)CC(C)C)C(C)C)[C@@H](C)O)C(=O)N[C@@H](CC(N)=O)C(=O)N[C@@H](CCSC)C(=O)N[C@@H](CC(C)C)C(=O)N[C@@H](CCCCNC(=O)COCCOCCNC(=O)COCCOCCNC(=O)CC[C@H](NC(=O)CCCCCCCCCCCCCCCCC(=O)O)C(=O)O)C(=O)N[C@@H](CCCNC(=N)N)C(=O)N1CCC[C@H]1C(=O)N[C@@H](CCCNC(=N)N)C(=O)N[C@@H](Cc1ccc(O)cc1)C(N)=O [Compound AJ] (H-LEPVYPGDNATPEQMAQYAADLRRYINMLK([AEEA-AEEA-γGlu-C18 diacid])RPRY-NH2; N-terminus and C-terminus assumed) | 80
3 | CC[C@H](C)[C@H](NC(=O)[C@H](Cc1ccc(O)cc1)NC(=O)[C@H](CCCNC(=N)N)NC(=O)[C@H](CCCCNC(=O)COCCOCCNC(=O)COCCOCCNC(=O)CC[C@H](NC(=O)CCCCCCCCCCCCCCCCC(=O)O)C(=O)O)NC(=O)[C@H](CC(C)C)NC(=O)[C@H](CC(=O)O)NC(=O)[C@H](C)NC(=O)[C@H](C)NC(=O)[C@H](Cc1ccc(O)cc1)NC(=O)[C@H](CCC(N)=O)NC(=O)[C@H](C)NC(=O)[C@H](CCSC)NC(=O)[C@H](CCC(N)=O)NC(=O)[C@H](CCC(=O)O)NC(=O)[C@@H]1CCCN1C(=O)[C@@H](NC(=O)[C@H](C)NC(=O)[C@H](CC(N)=O)NC(=O)[C@H](CC(=O)O)NC(=O)CNC(=O)[C@@H]1CCCN1C(=O)[C@H](Cc1ccc(O)cc1)NC(=O)[C@@H](NC(=O)[C@@H]1CCCN1C(=O)[C@H](CCC(=O)O)NC(=O)[C@@H](N)CC(C)C)C(C)C)[C@@H](C)O)C(=O)N[C@@H](CC(N)=O)C(=O)N[C@@H](CCSC)C(=O)N[C@@H](CC(C)C)C(=O)N[C@H](C(=O)N[C@@H](CCCNC(=N)N)C(=O)N1CCC[C@H]1C(=O)N[C@@H](CCCNC(=N)N)C(=O)N[C@@H](Cc1ccc(O)cc1)C(N)=O)[C@@H](C)O [Compound AQ] (H-LEPVYPGDNATPEQMAQYAADLK([AEEA-AEEA-γGlu-C18 diacid])RYINMLTRPRY-NH2; N-terminus and C-terminus assumed) | 48
4 | CC[C@H](C)[C@H](NC(=O)[C@H](Cc1ccc(O)cc1)NC(=O)[C@H](CCCNC(=N)N)NC(=O)[C@H](CCCNC(=N)N)NC(=O)[C@H](CC(C)C)NC(=O)[C@H](CC(=O)O)NC(=O)[C@H](C)NC(=O)[C@H](C)NC(=O)[C@H](Cc1ccc(O)cc1)NC(=O)[C@H](CCC(N)=O)NC(=O)[C@H](C)NC(=O)[C@H](CCSC)NC(=O)[C@H](CCC(N)=O)NC(=O)[C@H](CCC(=O)O)NC(=O)[C@@H]1CCCN1C(=O)[C@@H](NC(=O)[C@H](C)NC(=O)[C@H](CC(N)=O)NC(=O)[C@H](CC(=O)O)NC(=O)CNC(=O)[C@@H]1CCCN1C(=O)[C@H](Cc1ccc(O)cc1)NC(=O)[C@H](CCCCNC(=O)COCCOCCNC(=O)COCCOCCNC(=O)CC[C@H](NC(=O)CCCCCCCCCCCCCCCCC(=O)O)C(=O)O)NC(=O)[C@@H]1CCCN1C(=O)[C@H](CCC(=O)O)NC(=O)[C@H](CC(C)C)NC(=O)[C@@H]1CCCN1)[C@@H](C)O)C(=O)N[C@@H](CC(N)=O)C(=O)N[C@@H](CCSC)C(=O)N[C@@H](CC(C)C)C(=O)N[C@H](C(=O)N[C@@H](CCCNC(=N)N)C(=O)N1CCC[C@H]1C(=O)N[C@@H](CCCNC(=N)N)C(=O)N[C@@H](Cc1ccc(O)cc1)C(N)=O)[C@@H](C)O [Compound AB] | 44

The remaining lines, values ahead:

Row | half-life [h] | SMILES
5 | 96 | CC[C@H](C)[C@H](NC(=O)[C@H](CCCCNC(=O)COCCOCCNC(=O)COCCOCCNC(=O)CC[C@H](NC(=O)CCCCCCCCCCCCCCCCC(=O)O)C(=O)O)NC(=O)[C@H](CCCNC(=N)N)NC(=O)[C@H](CCCNC(=N)N)NC(=O)[C@H](CC(C)C)NC(=O)[C@H](CC(=O)O)NC(=O)[C@H](C)NC(=O)[C@H](C)NC(=O)[C@H](Cc1ccc(O)cc1)NC(=O)[C@H](CCC(N)=O)NC(=O)[C@H](C)NC(=O)[C@H](CCSC)NC(=O)[C@H](CCC(N)=O)NC(=O)[C@H](CCC(=O)O)NC(=O)[C@@H]1CCCN1C(=O)[C@@H](NC(=O)[C@H](C)NC(=O)[C@H](CC(N)=O)NC(=O)[C@H](CC(=O)O)NC(=O)CNC(=O)[C@@H]1CCCN1C(=O)[C@H](Cc1ccc(O)cc1)NC(=O)[C@@H](NC(=O)[C@@H]1CCCN1C(=O)[C@H](CCC(=O)O)NC(=O)[C@H](CC(C)C)NC(=O)[C@@H]1CCCN1)C(C)C)[C@@H](C)O)C(=O)N[C@@H](CC(N)=O)C(=O)N[C@@H](CCSC)C(=O)N[C@@H](CC(C)C)C(=O)N[C@H](C(=O)N[C@@H](CCCNC(=N)N)C(=O)N1CCC[C@H]1C(=O)N[C@@H](CCCNC(=N)N)C(=O)N[C@@H](Cc1ccc(O)cc1)C(N)=O)[C@@H](C)O [Compound G] (H-PLEPVYPGDNATPEQMAQYAADLRRK([AEEA-AEEA-γGlu-C18 diacid])INMLTRPRY-NH2; N-terminus and C-terminus assumed)
6 | 44 | CC[C@H](C)[C@H](NC(=O)[C@H](Cc1ccc(O)cc1)NC(=O)[C@H](CCCNC(=N)N)NC(=O)[C@H](CCCNC(=N)N)NC(=O)[C@H](CCCCNC(=O)COCCOCCNC(=O)COCCOCCNC(=O)CC[C@H](NC(=O)CCCCCCCCCCCCCCCCC(=O)O)C(=O)O)NC(=O)[C@H](CC(=O)O)NC(=O)[C@H](C)NC(=O)[C@H](C)NC(=O)[C@H](Cc1ccc(O)cc1)NC(=O)[C@H](CCC(N)=O)NC(=O)[C@H](C)NC(=O)[C@H](CCSC)NC(=O)[C@H](CCC(N)=O)NC(=O)[C@H](CCC(=O)O)NC(=O)[C@@H]1CCCN1C(=O)[C@@H](NC(=O)[C@H](C)NC(=O)[C@H](CC(N)=O)NC(=O)[C@H](CC(=O)O)NC(=O)CNC(=O)[C@@H]1CCCN1C(=O)[C@H](Cc1ccc(O)cc1)NC(=O)[C@@H](NC(=O)[C@@H]1CCCN1C(=O)[C@H](CCC(=O)O)NC(=O)[C@H](CC(C)C)NC(=O)[C@@H]1CCCN1)C(C)C)[C@@H](C)O)C(=O)N[C@@H](CC(N)=O)C(=O)N[C@@H](CCSC)C(=O)N[C@@H](CC(C)C)C(=O)N[C@H](C(=O)N[C@@H](CCCNC(=N)N)C(=O)N1CCC[C@H]1C(=O)N[C@@H](CCCNC(=N)N)C(=O)N[C@@H](Cc1ccc(O)cc1)C(N)=O)[C@@H](C)O [Compound J] (H-PLEPVYPGDNATPEQMAQYAADK([AEEA-AEEA-γGlu-C18 diacid])RRYINMLTRPRY-NH2; N-terminus and C-terminus assumed)
